In publication PMC10287183 (Antiviral Research, 2023):
Like-named read-outs stand apart in the source and are kept apart here.

Assays:
in vitro = settings: human
SARS-CoV2 D614G = type: cell-based, SARS-CoV-2; settings: for EC90: read-out: EC90 (mean ± SD)
SARS-CoV-2 D614G = type: cell-based

Which CC50 (in vitro) does the source give for CCN(CCO)CCCC(C)Nc1ccnc2cc(Cl)ccc12 (centres unmarked) [Hydroxychloroquin, Hydroxychloroquine] here?
Its CC50 is greater than 100 µM.

And the “Highest % of Virus Inhibition” value (SARS-CoV2 D614G)?
The value was 98%.

And the EC90 (SARS-CoV2 D614G)?
The EC90 was 18.9 ± 2.3 µM.

With O=[N+]([O-])c1ccc(O)c2ncccc12 [Nitroxoline, nitroxoline] as the molecule, how does the CC50 (in vitro) read?
The CC50 was greater than 100 µM.

And the EC90 (SARS-CoV2 D614G)?
The EC90 was 9.9 ± 8 µM.

And the virus entry step (SARS-CoV-2 D614G)?
The virus entry step was “inhibited this step similarly to HCQ”.

Which results are given for CLIK-148 [CLIK 148]?
CC50 (Huh7-hACE2): > 100 µM; Highest % of Virus Inhibition (SARS-CoV2 D614G; […], highest concentration tested 100 μM (CLIK-148 60 μM)): 64%
